The text below walks through data of US8865750B2, “Small molecule inhibitors of RGS proteins” (The Regents of The University of Michigan, priority 2011, dated 2014).

Where two headings read alike, the source gives them in different places.

Test [1] deals with RGS8 (Homo sapiens (Human), UniProt P57771). The experiment in a line: FCPIA: Gαo binding to RGS8. To be noted: for RGS8 Hill Slope: Table 3; for IC50: read-out: RGS8 IC50. The source says:
(§1) FCPIA Dose Response and Reversibility Experiments:

Test [2] deals with RGS4. The experiment in a line: FCPIA: Gαo binding to RGS4. The conditions noted are these: for RGS4 Hill Slope: Table 3; for IC50: read-out: RGS4 IC50; for activity at RGS4: FCPIA.
From the text: as §1

The test system of test [3] is HEK293 cells. The experiment in a line: Calcium mobilization induced by compound alone.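 Note: percent of response to 10 µM reference CCG-50014.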 Type of test: cell-based. The conditions noted are these: Homo sapiens, HEK293; read-out: Calcium transient (% 50014). Here is the method: Calcium Mobilization Experiments:
A stable cell line was developed based upon the HEK-293 Flp-In TREx cell line (Invitrogen, Carlsbad, Calif.) that stably express the muscarinic M3 receptor and have human RGS4 expression under doxycycline control. Cells were maintained in DMEM supplemented with 10% fetal bovine serum and Penicillin (100 units/ml)-Streptomycin (100 μg/ml) under 5% CO2 at 37° C. For experiments, cells were split into 96-well black, clear bottom, poly-D-lysine coated microtiter plates (Nunc, Cat. #152037) at a density of 20,000 cells/well in DMEM containing 10% fetal bovine serum and Penicillin (100 units/ml), Streptomycin (100 μg/ml). RGS4 expression was induced by supplementing the medium with 1 μg/mL doxycycline for 24-48 hours before experimentation. Cells were loaded with Fluo-4 No Wash dye in buffer for 30 minutes at 37° C. Compounds and/or carbachol were added to the wells and the fluorescence intensity was measured using a FlexStation (Molecular Devices, Sunnyvale, Calif.) plate reader. Data analysis was performed by calculating the area under the curve or maximal fluorescence intensity from a 120 second kinetic measurement.

Setting [4] is: Table 3, duplex FCPIA, average of two experiments.
[5] abbreviates: Table 2, mean of two independent FCPIA experiments.

RGS8, sequence (P57771 other isoform, or with tags, fused parts or gaps): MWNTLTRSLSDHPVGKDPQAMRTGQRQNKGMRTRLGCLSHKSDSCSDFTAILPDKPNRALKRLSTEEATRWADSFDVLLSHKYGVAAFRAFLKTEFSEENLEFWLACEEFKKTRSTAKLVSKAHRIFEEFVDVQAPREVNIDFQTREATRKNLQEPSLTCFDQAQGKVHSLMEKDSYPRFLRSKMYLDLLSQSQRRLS

Consider `O=c1sn(-c2ccccc2)c(=O)n1Cc1ccccc1` [CCG-203722, 2-phenyl-4-benzyl-1,2,4-thiadiazoline-3,5-dione], for which, in test [1], the “RGS8 Hill Slope” value is given as −0.80. Besides, the IC50 (commonly the concentration that gives 50% inhibition) in test [1] (Table 6, FCPIA) stood at 5.6 µM; in test [2] (setting [4]) it was 0.024 µM. In test [2], the “RGS4 Hill Slope” value is −1.89. For the same compound, the Emax at 10 µM in test [3] came to 3.8%.
With `O=c1sn(-c2ccc(Cl)cc2)c(=O)n1Cc1ccccc1` [CCG-203723, 2-(4-chlorophenyl)-4-benzyl-1,2,4-thiazolidine-3,5-dione], the “RGS8 Hill Slope” value in test [1] is recorded as −0.80. Besides, the IC50 in test [1] (setting [4]) came out at 5.2 µM; in test [2] (setting [4]) it was 0.029 µM. For the same compound, the “RGS4 Hill Slope” value in test [2] is on record as −1.99. Moreover, the Emax at 10 µM in test [3] amounted to 120%.
On to `O=c1sn(-c2ccc(Cl)c(Cl)c2)c(=O)n1Cc1ccccc1` [CCG-203725], for which the “RGS8 Hill Slope” value in test [1] is listed as −1.62. Moreover, the IC50 in test [1] (Table 6, FCPIA) was found to be 13.2 µM; in test [2] (setting [4]), 0.089 µM. Further, the “RGS4 Hill Slope” value in test [2] was −2.06. In addition, in test [3], the Emax at 10 µM worked out at 64.2%.
Consider `O=c1sn(-c2ccccc2)c(=O)n1Cc1ccc(F)cc1` [CCG-203726, 2-phenyl-4-(4-fluorobenzyl)-1,2,4-thiadiazolidine-3,5-dione], for which, in test [1], the “RGS8 Hill Slope” value is −0.82. Also, the half-inhibitory concentration (IC50) in test [1] (Table 6, FCPIA) was found to be 6.2 µM; in test [2] (setting [4]), 0.016 µM. Besides, the “RGS4 Hill Slope” value in test [2] is −1.42. Further, the Emax at 10 µM in test [3] stood at 20.9%.
With `O=c1sn(-c2ccc(Cl)c(Cl)c2)c(=O)n1Cc1ccc(F)cc1` [CCG-203728, 2-(3,4-dichlorophenyl)-4-(4-fluorobenzyl)-1,2,4-thiadiazolidine-3,5-dione], the “RGS8 Hill Slope” value in test [1] is reported as −1.78. The IC50 stood at 17.2 µM in test [1] (setting [4]) and 0.036 µM in test [2] (setting [4]). For the same compound, the “RGS4 Hill Slope” value in test [2] was −1.15. The Emax at 10 µM in test [3] amounted to 128%.
For the compound `Cc1ccc(-n2sc(=O)n(Cc3ccc(Cl)cc3)c2=O)cc1` [CCG-203731, 2-p-tolyl-4-(4-chlorobenzyl)-1,2,4-thiadiazolidine-3,5-dione], the “RGS8 Hill Slope” value in test [1] is listed as −1.50. Further, the IC50 in test [1] (Table 6, FCPIA) turned out to be 11.8 µM; in test [2] (Table 6, FCPIA), 0.0054 µM. Moreover, in test [2], the “RGS4 Hill Slope” value is −0.70. Also, in test [3], the Emax at 10 µM is -2.6%.
In the case of `Cc1ccc(Cn2sc(=O)n(Cc3ccccc3)c2=O)cc1` [CCG-203734, 2-(4-methylbenzyl)-4-benzyl-1,2,4-thiadiazolidine-3,5-dione], the “RGS8 Hill Slope” value in test [1] is given as −0.66. Besides, the IC50 in test [1] (setting [4]) turned out to be 20.4 µM; in test [2] (Table 6, FCPIA), 0.0072 µM. Also, in test [2], the “RGS4 Hill Slope” value is −0.84. Also, the Emax at 10 µM in test [3] came to 591%.
For the compound `COc1ccc(-n2sc(=O)n(Cc3ccc(F)cc3)c2=O)cc1` [CCG-203735, 2-(4-methoxyphenyl)-4-(4-fluorobenzyl)-1,2,4-thiadiazolidine-3,5-dione], the “RGS8 Hill Slope” value in test [1] is listed as −1.27. The IC50 in test [1] (Table 6, FCPIA) came out at 11.4 µM; in test [2] (setting [4]) it was 0.011 µM. Further, the “RGS4 Hill Slope” value in test [2] was −1.33. Further, in test [3], the Emax at 10 µM was determined as 6.2%.
Regarding `Cc1ccc(Cn2c(=O)sn(-c3ccc(C)cc3)c2=O)cc1` [CCG-203736, 2-p-tolyl-4-(4-methylbenzyl)-1,2,4-thiadiazolidine-3,5-dione], in test [1], the “RGS8 Hill Slope” value is recorded as −1.45. For the same compound, the half-maximal inhibitory concentration (IC50) amounted to 11.6 µM in test [1] (setting [4]) and 0.0086 µM in test [2] (Table 6, FCPIA). Further, the “RGS4 Hill Slope” value in test [2] is reported as −1.35. The Emax at 10 µM in test [3] was found to be 4.9%.
Regarding `Cc1ccc(Cn2sc(=O)n(Cc3ccc(F)cc3)c2=O)cc1` [CCG-203742, 2-(4-methylbenzyl)-4-(4-fluorobenzyl)-1,2,4-thiadiazolidine-3,5-dione], the “RGS8 Hill Slope” value in test [1] was −0.22. The 50% inhibitory concentration (IC50) stood at 39.8 µM in test [1] (setting [4]) and 0.013 µM in test [2] (setting [4]). Further, the “RGS4 Hill Slope” value in test [2] is −1.19. Also, the Emax at 10 µM in test [3] came to 108%.
As for `Cc1ccc(-n2sc(=O)n(Cc3ccc(Cl)c(Cl)c3)c2=O)cc1` [CCG-203743, 2-p-tolyl-4-(3,4-dichlorobenzyl)-1,2,4-thiadiazolidine-3,5-dione], in test [1], the “RGS8 Hill Slope” value is −0.65. Moreover, the IC50 in test [1] (setting [4]) amounted to 15.7 µM; in test [2] (setting [4]), 0.034 µM. Also, the “RGS4 Hill Slope” value in test [2] is −1.43. Also, the Emax at 10 µM in test [3] stood at 45.6%.
Taken in the same sequence, the figures for `COc1ccc(-n2sc(=O)n(Cc3ccccc3)c2=O)cc1` [CCG-203746, 2-(4-methoxyphenyl)-4-benzyl-1,2,4-thiadiazolidine-3,5-dione] were −1.00, 12.3 µM, 0.024 µM, −1.45 and 74.6%.
Regarding `COc1ccc(Cn2c(=O)sn(-c3ccc(C)cc3)c2=O)cc1` [CCG-203754, 2-p-tolyl-4-(4-methoxybenzyl)-1,2,4-thiadiazolidine-3,5-dione], the IC50 in test [1] (Table 6, FCPIA) turned out to be 312 µM.
`CCCCn1sc(=O)n(C)c1=O` [CCG-203757, 2-butyl-4-methyl-1,2,4-thiadiazolidine-3,5-dione]: the “RGS8 Hill Slope” value in test [1] is reported as −1.10. Further, the IC50 was 28.4 µM in test [1] (setting [4]) and 0.0235 µM in test [2] (Table 6, FCPIA). Further, the “RGS4 Hill Slope” value in test [2] is on record as −1.01. Further, the Emax at 10 µM in test [3] stood at 138%.
Take `CCn1sc(=O)n(C)c1=O` [CCG-203758, 2-ethyl-4-methyl-1,2,4-thiadiazolidine-3,5-dione]: the IC50 in test [1] (Table 6, FCPIA) is 37 µM; in test [2] (Table 6, FCPIA), 0.0223 µM.
Turning to `CCn1sc(=O)n(Cc2ccc(F)cc2)c1=O` [CCG-203766, 2-ethyl-4-(4-fluorobenzyl)-1,2,4-thiadiazolidine-3,5-dione], the half-inhibitory concentration (IC50) in test [1] (Table 6, FCPIA) stood at 18.7 µM; in test [2] (Table 6, FCPIA) it was 0.0223 µM.
On to `Cc1ccc(CN2C(=O)CN(c3ccc(C)cc3)C2=O)cc1` [CCG-203778], for which the half-maximal inhibitory concentration (IC50) in test [1] (setting [5]) and in test [2] (setting [5]) was > 100 µM in each case.
Take `Cc1ccc(C2=CC(=O)N(Cc3ccccc3)C2=O)cc1` [CCG-203779]: the 50% inhibitory concentration (IC50) in test [2] (setting [5]) came to 93 µM.
Consider `Cc1ccc(-n2sc(=O)n(Cc3cccc(C)c3)c2=O)cc1` [CCG-203782, 2-(4-methylphenyl)-4-(3-methylbenzyl)-1,2,4-thiadiazolidine-3,5-dione], for which the IC50 in test [1] (Table 6, FCPIA) amounted to 9.9 µM; in test [2] (Table 6, FCPIA) it was 0.0145 µM.
In the case of `CC(C)(C)c1ccc(-n2sc(=O)n(Cc3ccc(F)cc3)c2=O)cc1` [S1, 2-(4-t-butylphenyl)-4-(4-fluorobenzyl)-1,2,4-thiadiazolidine-3,5-dione], the IC50 in test [1] (Table 6, FCPIA) amounted to 50.4 µM.
On to `O=c1sn(-c2ccccc2)c(=O)n1Cc1ccc(Cl)cc1` [S4, 2-phenyl-4-(4-chlorobenzyl)-1,2,4-thiadiazolidine-3,5-dione], for which the IC50 in test [1] (Table 6, FCPIA) is 7.5 µM.
In the case of `O=c1sn(-c2ccc(Cl)c(Cl)c2)c(=O)n1Cc1ccc(Cl)cc1` [S7, 2-(3,4-dichlorophenyl)-4-(4-chlorobenzyl)-1,2,4-thiadiazolidine-3,5-dione], in test [1] (Table 6, FCPIA), the IC50 was 43.2 µM.
`COc1ccc(-n2sc(=O)n(Cc3ccc(C)cc3)c2=O)cc1` [S11, 2-(4-methoxyphenyl)-4-(4-methylbenzyl)-1,2,4-thiadiazolidine-3,5-dione]: the IC50 in test [1] (Table 6, FCPIA) came out at 6.6 µM.
Take `CC(C)(C)c1ccc(-n2sc(=O)n(Cc3cccc(Cl)c3)c2=O)cc1` [S15, 2-(4-t-butylphenyl)-4-(3-chlorobenzyl)-1,2,4-thiadiazolidine-3,5-dione]: the IC50 in test [1] (Table 6, FCPIA) is 32.2 µM.
Turning to `O=c1sn(-c2cccc(C(F)(F)F)c2)c(=O)n1Cc1cccc(Cl)c1` [S18, 2-(3-trifluoromethylphenyl)-4-(3-chlorobenzyl)-1,2,4-thiadiazolidine-3,5-dione], the concentration for half-maximal inhibition (IC50) in test [1] (Table 6, FCPIA) was determined as 16.2 µM.
Regarding `Cc1cccc(Cn2c(=O)sn(-c3ccc(C(C)(C)C)cc3)c2=O)c1` [S20, 2-(4-t-butylphenyl)-4-(3-methylbenzyl)-1,2,4-thiadiazolidine-3,5-dione], the half-inhibitory concentration (IC50) in test [1] (Table 6, FCPIA) is 17.8 µM.
In the case of `Cc1cccc(Cn2c(=O)sn(-c3cccc(Cl)c3)c2=O)c1` [S22, 2-(3-chlorophenyl)-4-(3-methylbenzyl)-1,2,4-thiadiazolidine-3,5-dione], the 50% inhibitory concentration (IC50) in test [1] (Table 6, FCPIA) came out at 31 µM.
As to `Cc1cccc(Cn2c(=O)sn(-c3cccc(C(F)(F)F)c3)c2=O)c1` [S23, 2-(3-trifluoromethylphenyl)-4-(3-methylbenzyl)-1,2,4-thiadiazolidine-3,5-dione], the “RGS8 Hill Slope” value in test [1] is −1.03. The half-inhibitory concentration (IC50) in test [1] (setting [4]) was determined as 15.9 µM; in test [1] (Table 6, FCPIA) it was 15.9 µM. For the same compound, the Emax at 10 µM in test [3] stood at 65.2%.
On to `Cc1ccc(Cn2c(=O)sn(-c3ccc(Cl)c(Cl)c3)c2=O)cc1` [S!2, 2-(3,4-dichlorophenyl)-4-(4-methylbenzyl)-1,2,4-thiadiazolidine-3,5-dione], for which, in test [1] (Table 6, FCPIA), the concentration for half-maximal inhibition (IC50) stood at 175 µM.
On to `Cc1ccc(CN2C(=O)CN(c3ccc(C)cc3)C2=O)cc1` [compound 14, 3-(4-methylbenzyl)-1-p-tolylimidazolidine-2,4-dione], for which the half-maximal inhibitory concentration (IC50) in test [1] (Table 6, FCPIA) was > 100 µM; in test [2] (Table 6, FCPIA), > 100 µM. In test [2], the “activity at RGS4” value is “Neither 14 or 15 displayed activity at RGS4”.
Take `Cc1ccc(C2=CC(=O)N(Cc3ccccc3)C2=O)cc1` [compound 15, 1-benzyl-3-p-tolyl-1H-pyrrole-2,5-dione]: the “activity at RGS4” value in test [2] is on record as “Neither 14 or 15 displayed activity at RGS4”.
